Reference: EP2958945B1, “COMBINATION THERAPY INVOLVING ANTIBODIES AGAINST CLAUDIN 18.2 FOR TREATMENT OF CANCER” (Astellas Pharma Inc., priority 2013, dated 2014)

Legend:
[1] = system: Kato III cells; experiment: Viable cells after 3 days pretreatment, Kato III; format: cell-based, human; details: Kato III pretreated 3 days; Irinotecan 1000 ng/ml, Docetaxel 5 ng/ml, Cisplatin 2000 ng/ml; vs medium cultivated cells
Procedure: (§1) Peripheral blood mononuclear cells (PBMCs) including NK cells, monocytes, […] or other effector cells from healthy human donors were purified by Ficoll Hypaque density centrifugation. Washed effector cells were seeded in X-Vivo medium. Kato III cells which express CLDN18.2 endogenously and are of gastric origin were used as target cells in this setting. Target cells stably expressed luciferase, lucifer yellow, which is oxidized by viable cells only.

[2] = system: CLDN18.2; experiment: CLDN18.2 expression after 3 days pretreatment, Kato III; format: cell-based, human; details: Kato III pretreated 3 days; Irinotecan 1000 ng/ml, Docetaxel 5 ng/ml, Cisplatin 2000 ng/ml; vs medium cultivated cells
[3] = system: Kato III cells; experiment: IMAB362 induced ADCC on chemotherapy pretreated Kato III; format: cell-based, human; details: Kato III pretreated 3 days; Irinotecan 1000 ng/ml, Docetaxel 5 ng/ml, Cisplatin 2000 ng/ml
Procedure: as §1

[4] = system: Kato III cells; experiment: Cell cycle analysis and cell growth, Kato III; format: cell-based, human; details: for cell cycle arrest: Kato III pretreated for 4 days
Procedure: Kato III cells, a human gastric tumor cell line, was cultivated in RPMI 1640 medium (Invitrogen) containing 20% FCS (Perbio) and 2 mM Glutamax (Invitrogen) at 37°C and 5% CO2, with or without cytostatic compounds. 5-FU (Neofluor from NeoCorp AG) was tested at a concentration of 10 or 100 ng/ml, and oxaliplatin (Hospira) was tested at a concentration of 50 or 500 ng/ml. […] Cells were harvested with EDTA/trypsin, washed and analysed.
Cell cycle stages were determined based on measurement of cellular DNA content. This allows one to discriminate between cells in the G1-, S- or G2-phase of the cell cycle. In the S-phase DNA duplication occurs whereas in the G2-phase cells grow and prepare for mitosis. Cell cycle analysis was done using the CycleTEST PLUS DNA Reagent Kit from BD Biosciences following the manufacturer's protocol. Flow cytometry acquisition and analysis were performed by using BD FACS CantoII (BD Biosciences) and FlowJo (Tree Star) software.
Kato III cells were pretreated for 4 days with Irinotecan or Docetaxel and analysed for CLDN18.2 expression and cell cycle arrest.

[5] = system: BxPC3-LVT xenografts; experiment: Subcutaneous BxPC3-LVT xenograft model; format: in vivo, Hsd:Athymic Nude-Foxn1^nu mice; details: up to 100 mg/kg gemcitabine without additional IMAB362 treatment
[6] = system: MiaPaCa-2-LVT xenografts; experiment: Subcutaneous MiaPaCa-2-LVT xenograft model; format: in vivo, Hsd:Athymic Nude-Foxn1^nu mice; details: up to 100 mg/kg gemcitabine without additional IMAB362 treatment
[7] = system: CLDN18.2; experiment: CLDN18.2 expression after chemotherapeutic pretreatment (RT-PCR, western blot), DANG; format: cell-based, human; details: Gem 1 ng/ml or Gem 1 ng/ml + Ox 10 ng/ml, 2 days, vs untreated
Procedure: For RNA isolation from pancreatic cancer cell lines, cells were seeded in 10 cm dishes and grown for 2-3 days until 80% confluent. RNA was isolated according to instructions supplied with the RNeasy® Mini Kit (Qiagen). cDNA preparation was performed following manufacturers instructions provided with the SuperScript® III First Strand kit (Invitrogen). RNA and cDNA samples were stored at -80°C.
Quantitative analysis of CLDN18.2 transcripts was performed by amplifying oligo(dT)-primed cDNAs in a 40 cycle PCR reaction using PCR primers #5054s (5'-[…]-3') and #5060as (5'-[…]-3') differentiating between CLDN18.1 and CLDN18.2 isoforms. The reaction was prepared with SYBR Green (QuantiTect SYBR Green PCR Kit, Qiagen), which intercalates in double stranded DNA. The reactions and measurements were performed using the ABI-PRISM7900 Sequence Detection System instrument and software (Applied Biosystems).
The relative expression levels of CLDN18 transcripts was computed using ΔΔCT calculation with respect to the house keeping gene HPRT.
For isolation of proteins of pancreatic cancer cell lines, cells were seeded in 10 cm dishes and grown for 2-3 days until 80% confluent. […] Protein concentration was measured in a spectrophotometer (Absorption at 280nm) and samples were stored at -80°C until use. […]

[8] = system: DANG; experiment: Cell cycle analysis, DANG; format: cell-based, human; details: Gem 2 ng/ml, two days
Procedure: Cells were plated in six-well plates, and 5-6 hours later chemotherapeutic agents were added for either 24 h 48 h or 3 days. Cells floating in the medium were combined with the adherent cell layer, which was trypsinized. Cells were washed. Either cell cycle analysis was started directly or cell surface staining was done before as described above. Cells are resuspended in 1 ml PBS and added to 3 ml 4% PFA. After 15 min fixation of cells at room temperature cells are pelleted and washed. For RNAse treatment cells were resuspended in 200 µl RNAse (10000 U/ml) plus 0.05% Triton X-100 and incubated for 30 min at 37°C. 1 ml PBS was added and samples were centrifuged and resuspended in 200 µl PBS/PJ 50 µg/ml. At least 30 min later samples were ready to be analyzed by flow cytometry. Cell cycle phase distribution was determined using FlowJo software to analyze DNA content histograms.

[9] = system: DANG; experiment: IMAB362-mediated ADCC on chemotherapy pretreated DANG; format: cell-based, human; details: DANG pretreated 2 days, Gem 1 ng/ml or Gem 1 ng/ml + Ox 10 ng/ml; vs untreated
Procedure: Pancreatic cancer target cells were seeded two days in advance in flasks to obtain 80-90% confluent cultures on the day ADCC started. […] NUGC-4 sub 10cH11 subE10 Luci#2 cells (8000 cells/well) were seeded in addition as positive controls in all assays. Cells were cultivated for 4-6 h before addition of antibody and purified PBMCs.
PBMCs were prepared from fresh human buffy coat obtained from healthy donors. About 3x 20-25 ml blood was diluted (1:2) with PBS and carefully layered on 4x 15 ml Ficol-Paque Plus (GE Healthcare) in 50 ml Falcon tubes. Gradients were centrifuged (25 min, 700 g). […] The pellets were resuspended in 50 ml PBS/2 mM EDTA and cells were counted. […]
The next day, 10 µl 8% Triton X100/PBS solution was added to the lysis control wells and 10 µl PBS in all other wells. […] Luminescence resulting from the oxidation of […] by the luciferase of viable cells was measured using a microplate-reader (Infinite200, Tecan, Switzerland). Percentage of cellular cytotoxicity was calculated using the following formula: Specific killing (%) = 100−[(RLUsample−RLUtriton)/(RLUmedium ctrl−RLUtriton)×100] […]
On the day ADCC started, the protocol described above was followed and cell surface expression of CLDN18 was determined in FACS analysis as described above.

[10] = system: established MiaPaCa-2-LVT xenograft tumors; experiment: Established MiaPaCa-2-LVT xenograft tumors; format: in vivo, Hsd:Athymic Nude-Foxn1^nu mice; details: gemcitabine 2x 150 mg/kg per week, independent from IMAB362 treatment

Row | SMILES | level of viable cells [1] | claudin18.2 expression [2] | potency of IMAB362 to induce ADCC [3] | cell cycle arrest [4] | also measured
1 | N.N.[Cl][Pt][Cl] [Cisplatin, cis-diamminedichloroplatinum(II)] | lower level of viable cells | increased | augmented | – | –
2 | O=c1[nH]cc(F)c(=O)[nH]1 [5-FU, 5-fluoro-1H-pyrimidine-2,4-dione] | – | – | – | – | cell cycle phase distribution ([4]; Kato III, 5-FU 10 or 100 ng/ml, oxaliplatin 50 or 500 ng/ml, 96 hours): blocked predominantly in the S-phase
3 | CCc1c2c(nc3ccc(OC(=O)N4CCC(N5CCCCC5)CC4)cc13)-c1cc3c(c(=O)n1C2)COC(=O)[C@]3(O)CC [Irinotecan, (S)-4,11-diethyl-3,4,12,14-tetrahydro-4-hydroxy-3,14-dioxo1H-pyrano[3',4':6,7]-indolizino[1,2-b]quinolin-9-yl-[1,4'-bipiperidine]-1'-carboxylate] | lower level of viable cells | – | augmented | cell cycle arrest in the S/G2-phase | –
4 | CC(=O)O[C@@]12CO[C@@H]1C[C@H](O)[C@@]1(C)C(=O)[C@H](O)C3=C(C)[C@@H](OC(=O)[C@H](O)[C@@H](NC(=O)OC(C)(C)C)c4ccccc4)C[C@@](O)([C@@H](OC(=O)c4ccccc4)[C@H]21)C3(C)C [Docetaxel, 1,7β,10β-trihydroxy-9-oxo-5β,20-epoxytax-11-ene-2α,4,13α-triyl 4-acetate 2-benzoate 13-{(2R,3S)-3-[(tert-butoxycarbonyl)-amino]-2-hydroxy-3-phenylpropanoate}] | lower level of viable cells | increased | augmented | cell cycle arrest in the G2-phase | –
5 | Nc1ccn([C@@H]2O[C@H](CO)[C@@H](O)C2(F)F)c(=O)n1 [gemcitabine, 4-amino-1-(2-deoxy-2,2-difluoro-β-D-erythro-pentofuranosyl)pyrimidin-2(1H)-one] | – | – | – | – | therapeutic effect on xenograft [5]: no significant therapeutic effect; therapeutic effect on xenograft [6]: no significant therapeutic effect; mRNA and protein levels of CLDN18.2 [7]: increased mRNA and protein levels; cell cycle arrest [8]: cell cycle arrest in S-Phase; susceptibility for IMAB362 mediated ADCC [9]: higher susceptibility; tumor growth [10]: strongly inhibited in tumor growth
